Assay results taken from EPA's ToxRefDB 2.

How the values were obtained:
rat [1] = conditions: Prenatal developmental toxicity study, fischer, Oral, Feed, dose end: 15 GD
dog [2] = conditions: Subchronic oral toxicity in nonrodent, beagle, Feed, dose end: 13 week, group: systemic, systemic / hematology / erythrocyte (rbc) count differential / erythrocyte (rbc) + systemic / in life observation / body weight / body …
rat [3] = conditions: Combined chronic toxicity/carcinogenicity, sprague dawley, Oral, Feed, dose end: 2 year
rat [4] = conditions: Multigenerational reproductive toxicity study, other, Oral, Feed, dose end: 2 generation
rat [5] = conditions: Subchronic oral toxicity in rodents, fischer, Feed, dose end: 13 week
mouse [6] = conditions: Subchronic oral toxicity in rodents, cd1, Feed, dose end: 4 week, group: systemic
dog [7] = conditions: Subchronic oral toxicity in nonrodent, beagle, Feed, dose end: 6 month
mouse [8] = conditions: Carcinogenicity, cd1, Oral, Feed, dose end: 97 week, group: systemic
dog [9] = conditions: Chronic toxicity, beagle, Oral, Feed, dose end: 52 week
dog [10] = conditions: Subchronic oral toxicity in nonrodent, beagle, Capsule, dose end: 90 day, group: systemic, systemic / clinical chemistry / albumin-globulin ratio / albumin-globulin ratio + systemic / clinical chemistry / cholesterol / cholesterol…
dog [11] = conditions: Chronic toxicity; beagle; Oral; Capsule; dose end: 52 week; group: systemic; systemic / in life observation / clinical signs / abnormal movements + systemic / in life observation / clinical signs / altered breathing …
mouse [12] = conditions: Carcinogenicity, cd1, Oral, Feed, dose end: 82 week, group: systemic
rat [13] = conditions: Combined chronic toxicity/carcinogenicity, fischer, Oral, Feed, dose end: 24 month, group: systemic
rat [14] = conditions: Subchronic oral toxicity in rodents, sprague dawley, Feed, dose end: 90 day, group: systemic
mouse [15] = conditions: Subchronic oral toxicity in rodents, cd1, Feed, dose end: 13 week, group: systemic
rat [16] = conditions: Multigenerational reproductive toxicity study, other, Oral, Feed, dose end: 2 generation; remark: listed apart in the source
[17] = group: developmental, developmental / developmental malformation / bone / bipartite ossification + developmental / developmental malformation / general / crown-…
[18] = group: maternal, systemic / in life observation / body weight / body weight gain + reproductive / reproductive performance / pregnancy / pregnancy + …
[19] = group: cholinesterase, cholinesterase / cholinesterase / cholinesterase / erythrocyte cholinesterase (che)
[20] = group: cholinesterase, cholinesterase / cholinesterase / cholinesterase / erythrocyte cholinesterase (che) + cholinesterase / cholinesterase / cholinesterase / …
[21] = group: systemic, systemic / pathology microscopic / spleen / hematopoietic cell proliferation
[22] = group: systemic, systemic / pathology microscopic / spleen / hematopoietic cell proliferation + systemic / hematology / erythrocyte (rbc) count differential…
[23] = group: offspring, developmental / offspring survival late / viability index / viability index
[24] = group: offspring, developmental / offspring survival late / viability index / viability index + systemic / in life observation / body weight / offspring (pup…
[25] = group: parental, systemic / in life observation / body weight / body weight + systemic / in life observation / body weight / body weight gain + systemic / in…
[26] = group: cholinesterase, cholinesterase / cholinesterase / cholinesterase / brain cholinesterase (che)
[27] = group: systemic, systemic / clinical chemistry / calcium / calcium + systemic / hematology / leukocyte (wbc) count differential / leukocyte (wbc) + systemic…
[28] = systemic / in life observation / body weight / body weight gain
[29] = systemic / organ weight / spleen / absolute
[30] = group: systemic, systemic / clinical chemistry / alanine aminotransferase (alt/sgpt) / alanine aminotransferase (alt/sgpt) + systemic / organ weight / liver…
[31] = systemic / clinical chemistry / alanine aminotransferase (alt/sgpt) / alanine aminotransferase (alt/sgpt) + systemic / clinical chemistry / …
[32] = group: cholinesterase, cholinesterase / cholinesterase / cholinesterase / brain cholinesterase (che) + cholinesterase / cholinesterase / cholinesterase / …
[33] = group: cholinesterase, cholinesterase / cholinesterase / cholinesterase / plasma cholinesterase (che)
[34] = group: systemic, systemic / hematology / erythrocyte (rbc) count differential / erythrocyte (rbc) + systemic / hematology / hematocrit (hct) / hematocrit (…
[35] = systemic / organ weight / thyroid gland / absolute + systemic / organ weight / thyroid gland / relative to body weight
[36] = systemic / clinical chemistry / albumin / albumin + systemic / clinical chemistry / cholesterol / cholesterol + systemic / clinical …
[37] = systemic / clinical chemistry / creatinine / creatinine
[38] = group: offspring, systemic / in life observation / body weight / offspring (pup) weight
[39] = group: parental, systemic / in life observation / body weight / body weight + systemic / in life observation / body weight / body weight gain + systemic / …

CSC(C)=NOC(=O)N(C)SN(C)C(=O)ON=C(C)SC [Thiodicarb]
LEL (rat [1]; [17]): 100 mg/kg/day | LOAEL (rat [1]; [17]): 100 mg/kg/day | NEL (rat [1]; [17]): 3 mg/kg/day | NOAEL (rat [1]; [17]): 3 mg/kg/day | LEL (rat [1]; group: maternal, reproductive / reproductive performance / pregnancy / pregnancy): 3 mg/kg/day | LOAEL (rat [1]; group: maternal, systemic / in life observation / body weight / body weight gain): 1 mg/kg/day | NEL (rat [1]; [18]): 1 mg/kg/day | NOAEL (rat [1]; [18]): 0.5 mg/kg/day | LEL (dog [2]): 40 mg/kg/day | LOAEL (dog [2]): 40 mg/kg/day | NEL (dog [2]): 15 mg/kg/day | NOAEL (dog [2]): 15 mg/kg/day | LEL (rat [3]; [19]): 15 mg/kg/day | LOAEL (rat [3]; [19]): 15 mg/kg/day | NEL (rat [3]; [20]): 4.5 mg/kg/day | NOAEL (rat [3]; [20]): 4.5 mg/kg/day | LEL (rat [3]; [21]): 12 mg/kg/day | LOAEL (rat [3]; [21]): 12 mg/kg/day | NEL (rat [3]; [22]): 3.3 mg/kg/day | NOAEL (rat [3]; [22]): 3.3 mg/kg/day | LOAEL (rat [4]; [23]): 5 mg/kg/day | NOAEL (rat [4]; [23]): < 5 mg/kg/day | LEL (rat [4]; [24]): 5 mg/kg/day | NEL (rat [4]; [24]): < 5 mg/kg/day | LEL (rat [4]; [25]): 15 mg/kg/day | LOAEL (rat [4]; [25]): 15 mg/kg/day | NEL (rat [4]; [25]): 5 mg/kg/day | NOAEL (rat [4]; [25]): 5 mg/kg/day | LEL (rat [5]; [26]): 30 mg/kg/day | LOAEL (rat [5]; [26]): > 30 mg/kg/day | NEL (rat [5]; [26]): 10 mg/kg/day | NOAEL (rat [5]; [26]): ≥ 30 mg/kg/day | LOAEL (rat [5]; [27]): > 30 mg/kg/day | NEL (rat [5]; [27]): 3 mg/kg/day | NOAEL (rat [5]; [27]): ≥ 30 mg/kg/day | LEL (rat [5]; group: systemic, systemic / hematology / leukocyte (wbc) count differential / leukocyte (wbc) + systemic / in life observation / body weight / body weight): 10 mg/kg/day | LOAEL (mouse [6]; [28]): 734 mg/kg/day | LEL (mouse [6]; [29]): 6.2 mg/kg/day | NEL (mouse [6]; [29]): < 6.2 mg/kg/day | NOAEL (mouse [6]; systemic / organ weight / spleen / absolute + systemic / in life observation / body weight / body weight gain + systemic / in life …): 346 mg/kg/day | LEL (dog [7]; [20]): 45 mg/kg/day | LOAEL (dog [7]; [20]): 45 mg/kg/day | NEL (dog [7]; [20]): 15 mg/kg/day | NOAEL (dog [7]; [20]): 15 mg/kg/day | LEL (dog [7]; [30]): 45 mg/kg/day | LOAEL (dog [7]; [30]): 45 mg/kg/day | NEL (dog [7]; [30]): 15 mg/kg/day | NOAEL (dog [7]; [30]): 15 mg/kg/day | LOAEL (mouse [8]; [31]): 1000 mg/kg/day | NOAEL (mouse [8]; [31]): 70 mg/kg/day | NEL (mouse [8]; systemic / in life observation / body weight / body weight + systemic / organ weight / kidney / absolute + systemic / organ weight / kidney…): 5 mg/kg/day | LEL (mouse [8]; systemic / pathology gross / spleen / enlarged + systemic / organ weight / liver / absolute + systemic / organ weight / spleen / absolute + …): 70 mg/kg/day | LOAEL (dog [9]; [32]): 12.8 mg/kg/day | NOAEL (dog [9]; [32]): 4.4 mg/kg/day | LEL (dog [9]; [33]): 4.5 mg/kg/day | NEL (dog [9]; [33]): < 4.5 mg/kg/day | LEL (dog [9]; [34]): 38.3 mg/kg/day | LOAEL (dog [9]; [34]): 38.3 mg/kg/day | NEL (dog [9]; [34]): 12.8 mg/kg/day | NOAEL (dog [9]; [34]): 12.8 mg/kg/day

C#CCC1=C(C)C(OC(=O)C2C(C=C(C)C)C2(C)C)CC1=O (configuration not stated) [Prallethrin]
LEL (dog [10]): 10 mg/kg/day | LOAEL (dog [10]): 10 mg/kg/day | NEL (dog [10]): 3 mg/kg/day | NOAEL (dog [10]): 3 mg/kg/day | LEL (dog [11]): 5 mg/kg/day | LOAEL (dog [11]): 5 mg/kg/day | NEL (dog [11]): 2.5 mg/kg/day | NOAEL (dog [11]): 2.5 mg/kg/day | LOAEL (mouse [12]; [28]): 347 mg/kg/day | NOAEL (mouse [12]; systemic / in life observation / body weight / body weight gain + systemic / organ weight / liver / nos): 68 mg/kg/day | LEL (mouse [12]; systemic / in life observation / clinical signs / fur (altered appearance)): 68 mg/kg/day | NEL (mouse [12]; systemic / in life observation / clinical signs / fur (altered appearance) + systemic / organ weight / kidney / nos + systemic / organ …): 13 mg/kg/day | LOAEL (rat [13]; [28]): 83.5 mg/kg/day | NOAEL (rat [13]; systemic / in life observation / body weight / body weight gain + systemic / clinical chemistry / cholesterol / cholesterol + systemic / …): 16.3 mg/kg/day | LEL (rat [13]; [35]): 4 mg/kg/day | NEL (rat [13]; [35]): < 4 mg/kg/day | LOAEL (rat [14]; [36]): 230 mg/kg/day | NEL (rat [14]; [36]): 24 mg/kg/day | NOAEL (rat [14]; [36]): 79.1 mg/kg/day | LEL (rat [14]; systemic / clinical chemistry / protein / protein + systemic / organ weight / kidney / absolute + systemic / hematology / eosinophils / …): 79.1 mg/kg/day | LEL (mouse [15]; [37]): 39 mg/kg/day | NEL (mouse [15]; [37]): < 39 mg/kg/day | LOAEL (mouse [15]; systemic / in life observation / body weight / body weight + systemic / in life observation / body weight / body weight gain): 1840 mg/kg/day | NOAEL (mouse [15]; systemic / in life observation / body weight / body weight + systemic / in life observation / body weight / body weight gain + systemic / …): 808 mg/kg/day | LEL (rat [16]; [38]): 156 mg/kg/day | LOAEL (rat [16]; [38]): 156 mg/kg/day | NEL (rat [16]; [38]): 31 mg/kg/day | NOAEL (rat [16]; [38]): 31 mg/kg/day | LOAEL (rat [16]; [39]): 156 mg/kg/day | NEL (rat [16]; [39]): 6 mg/kg/day | NOAEL (rat [16]; [39]): 31 mg/kg/day | LEL (rat [16]; group: parental, systemic / in life observation / body weight / body weight gain): 31 mg/kg/day
